Patent publication US20140343159A1, “FORMULATION OF SMALL ADRENERGIC AGONIST SALT FORMS IN ORGANIC SOLVENTS” (PROCERTUS BIOPHARM, INC., priority 2011, published 2014)
Blank lines part the entries; values can stand above or below the molecule they belong to.

Key:
[1] = format: physicochemical
Procedure: (§1) Known weights of (−) norepinephrine-tartrate dry powder were added to individual, 2.0 ml clear glass vials. An appropriate volume of ethanol and water at a ratio of 70:30 by volume solvent was then added to achieve the indicated concentrations. Sealed vials were vortexed for five seconds and then left at room temperature for 24 hr in the dark before examination to determine turbidity of liquid due to undissolved material.
Known weights of (−) norepinephrine-tartrate or (+/−) norepinephrine-HCl dry powders were added to individual, 2.0 ml, clear glass vials. An appropriate volume of ethanol to water (70:30) solvent was then added to achieve the indicated concentrations. Sealed vials were vortexed for five seconds and then left at room temperature for 24 hr in the dark before examination to determine turbidity of liquid due to undissolved material. Table 2, below, provides the solubility of (+/−) norepinephrine-HCl and (−) norepinephrine-tartrate in topical delivery vehicle of ethanol and water (70:30).
as §1, with “the indicated norepinephrine salts” for “(−) norepinephrine-tartrate dry powder”, “ml,” for “ml”, “of” for “of ethanol and water at a ratio of”, “(ethanol:water)” for “by volume”, “hr” for “hr in the dark”

[2] = system: human skin; experiment: Skin blanch response in human skin following topical application; format: in vivo; settings: 600 mM solution in 70:30 ethanol:water compared with supersaturated 300 mM (−) norepinephrine-tartrate
Procedure: Appropriate weights of each dry norepinephrine salt were weighed into clear glass vials, and appropriate volumes of ethanol and water at a ratio of 70:30, by volume, were added to achieve the indicated norepinephrine concentrations. The (+/−) norepinephrine-HCl dissolved to clarity with 5 second mixing at room temperature, and the (−) norepinephrine-tartrate required heating to 60° C. for 5 minutes and then mixing to clarify. 25 μL aliquots of each formulation were applied using a pipettor over multiple 2×2 cm patches of skin on volunteer's arm over a 20 second period. Images to record skin blanch onset, degree and duration were begun at 2 minute post-application. % Skin Blanch scores were assigned by visual evaluation. 100% Skin Blanch equaled the skin blanch seen after pressing firmly on the skin and quickly releasing.
Equal concentrations (300 mM) of the (−) norepinephrine enantiomer, either alone as the tartrate salt or in the presence of an equal amount of the (+) enantiomer HCl salt, were applied to human skin in the ethanol:water (70:30) delivery vehicle, and the pharmacologic efficacy of the (−) norepinephrine was scored based upon its ability to induce a skin blanch response by binding to al adrenergic receptors in the smooth muscle cells of the subcutaneous dermal blood vessels. […]

[3] = system: radiation-treated rats; experiment: Radiodermatitis in radiation-treated rats after topical vasoconstrictor; format: in vivo, rat; settings: two rats, 600 mM in ethanol:water (70:30) delivery vehicle applied prior to irradiation (FIG. 1)
Text: In the model, a topical vasoconstrictor was applied to a shaved area on the backs of rats prior to irradiation with a Cs^137 source. The severity of radiodermatitis was scored on day 13. Vasoconstriction at the topical treatment site was evidenced by the transient occurrence of a visible skin blanch that correlates with therapeutic efficacy in the rat radiodermatitis model. This skin blanch may serve as a surrogate efficacy marker for clinical studies. The general strategy of using topical vasoconstrictors to prevent these cancer therapy side effects is addressed in U.S. Pub. No 2007/0077219, which is incorporated by reference in its entirety herein.

[4] = Stability of (−) norepinephrine-HCl dissolved in water at 1000 mM; format: physicochemical; settings: 4° C. and 24° C., weeks/months following formulation
Procedure: (−) norepinephrine-HCl dissolved in water at 1000 mM is stable at 4° C. and 24° C. as determined by the absence of precipitate or colored oxidation products in the weeks/months following initial formulation. Previous formulations of norepinephrine-tartrate in saline (e.g., Levophed®, Hospira, Inc., Lake Forest, Ill.) have norepinephrine concentrations of 1-5 mM.
(−) norepinephrine-HCl was weighed into a glass vial. An appropriate volume of N2-purged water ([…] with vigorous N2 bubbling and stir bar) was delivered to the vial. The vial headspace was flushed with N2 gas and the vial was sealed. The vial was vortexed for 5 seconds to produce a clear solution. A weighed amount of dry citric acid solid was added to the (−) norepinephrine-HCl solution, the vial headspace was flushed with N2 and the vial was sealed. The vial was vortexed until the solution was clear. 200 μl aliquots of (−) norepinephrine-HCl+citric acid solution were added to 2.0 ml, clear, glass vials (previously rinsed with ethanol and dried). The vial headspaces were optionally flushed with N2 gas and the vials were sealed. 3.0 ml of (−) norepinephrine-HCl+citric acid solution was transferred to a glass vial, an appropriate dry weight of sodium EDTA was added to the vial, the vial headspace was flushed with N2 gas, the vial was sealed and the vial was vortexed until clear. […]

[5] = system: radiation-treated rats; settings: topical, applied prior to irradiation of rat skin; cited from earlier work
[6] = molecular target: β2 adrenergic receptor (Homo sapiens, UniProt P07550); settings: cited from earlier work
[7] = super-saturated solutions for topical application; cited from earlier work

Sequence of β2 adrenergic receptor (P07550 whole entry, species assumed): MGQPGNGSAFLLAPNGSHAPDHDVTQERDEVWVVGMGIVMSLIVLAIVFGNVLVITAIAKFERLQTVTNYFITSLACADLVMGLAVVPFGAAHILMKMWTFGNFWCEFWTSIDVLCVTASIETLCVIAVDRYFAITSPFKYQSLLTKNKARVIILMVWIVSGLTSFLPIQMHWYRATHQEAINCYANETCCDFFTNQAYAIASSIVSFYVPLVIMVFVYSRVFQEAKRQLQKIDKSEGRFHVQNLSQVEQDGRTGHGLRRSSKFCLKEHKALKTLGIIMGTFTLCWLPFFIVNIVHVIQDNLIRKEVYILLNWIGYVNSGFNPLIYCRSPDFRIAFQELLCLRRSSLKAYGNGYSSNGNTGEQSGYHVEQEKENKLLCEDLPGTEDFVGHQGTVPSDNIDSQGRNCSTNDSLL

maximum solubility [1]: at least 2000 mM
solubility relative to (−) norepinephrine-tartrate [1]: at least 10 fold
Molecule: Cl.NCC(O)c1ccc(O)c(O)c1 (racemic) [(+/−) norepinephrine-HCl]
vasoconstrictor activity in inducing a skin blanch response [2]: at least the same activity

maximum solubility [1]: at least 2000 mM
stability by absence of precipitate or colored oxidation products [4]: stable
Molecule: Cl.NC[C@H](O)c1ccc(O)c(O)c1 [(−) norepinephrine-HCl]
occurrence of radiodermatitis [3]: absence of radiodermatitis

Molecule: CNC[C@H](O)c1ccc(O)c(O)c1 [epinephrine]
protection against development of radiation dermatitis [5]: complete protection

Molecule: NC[C@H](O)c1ccc(O)c(O)c1 [norepinephrine]
protection against development of radiation dermatitis [5]: the same protection
binding to the β2 adrenergic receptor [6]: does not bind

maximum solubility [1]: 200 mM
solubility limit [1]: about 200 mM
Molecule: (−) norepinephrine-tartrate
stability of super-saturated solution [7]: stable for only a few hours
